Measurements reported in US20250241879A1, “CAPSAICIN SEQUENTIAL DOSING METHOD FOR TREATMENT OF KNEE JOINT PAIN” (priority 2018, published 2025).

System: human patients with bilateral knee osteoarthritis
Test: Procedure pain (NPRS) due to intraarticular trans-capsaicin, Breg pad vs ice pack cooling (Example 7)
Format: in vivo
Conditions: 1 mg intraarticular
Procedure: Human patients experiencing osteoarthritic knee joint pain were subjected to two different protocols for intraarticular administration of trans-capsaicin. Temporary pain expected due to administration of capsaicin was analyzed, along with the intraarticular temperature of the knee joint and the temperature of the patient's skin in the area to be cooled.
(§1) One of the protocols utilized a Breg Knee WrapOn Polar Pad (as illustrated in FIG. 1) that utilizes circulating ice-water to achieve cooling, where the pad is placed on skin surrounding the knee in order to cool the knee joint. The other protocol utilized ice-pack cooling, in which the patient's knee was wrapped with a stockinette and then the ice pack was positioned on top of the stockinette so that the ice pack is positioned over the patient's patella to thereby cool the knee joint. The ice pack was a LEADSTAR pain relief reusable cold therapy ice pack (size=6 inches). A temperature probe was placed into the intraarticular space of the patient's knee joint to measure intraarticular temperature of the knee joint. A temperature probe was also placed on the skin in the area to be cooled in order to measure skin temperature in the area to be cooled.
Five human patients suffering from moderate to severe painful bilateral knee osteoarthritis were recruited for this study evaluating the impact that cooling protocol has on the magnitude of temporary pain experienced by the patient due to administration of capsaicin. […] Patients that participated in the study passed the following screening criteria and meet the patient inclusion and exclusion criteria are set forth below. As part of patient screening, patients received an intradermal injection of 100 μL (100 μg) capsaicin into the non-dominant volar forearm. To be eligible to enter the study, patients were able to tolerate the capsaicin injection. Screening patients rated the pain from capsaicin injection at 5, 10, 20, and 30 minutes after injection using a 0-10 Numerical Pain Rating Scale, where “0” equals no pain and “10” equals worst possible pain.
as §1, with “ice pack (having a surface for application to the patient, wherein said surface has a diameter of approximately six inches) is positioned” for “ice pack is positioned”, “knee joint. A temperature” for “knee joint. The ice pack was a LEADSTAR pain relief reusable cold therapy ice pack (size=6 inches). A temperature”, “knee joint. At the discretion of the physician performing the procedure, in order to reduce discomfort for the patient, the protocol authorized the physician to instill a volume of 1-2 cc of 2% w/w lidocaine (without epinephrine) into the skin and subcutaneous tissue of the knee at the site of intra-articular probe insertion. A temperature” for “knee joint. A temperature”
One the first day of the study, patients were randomized so that (i) three patients receiving cooling of the knee joint using the Breg Knee WrapOn Polar Pad and (ii) two patients will receive ice-pack cooling over the patella as set forth above. Patients were subjected to the following procedure: • Placement of intraarticular temperature probe and skin temperature probe. […]

## COc1cc(CNC(=O)CCCCC=CC(C)C)ccc1O [trans-capsaicin, N-[(4-hydroxy-3-methoxyphenyl)methyl]-8-methylnon-6-enamide]
Ice Pack cooling, 20 min, all five patients (Example 7)
  Knee Pain (NPRS): 0.4 (+/−0.5)
Ice Pack cooling, 20 min, four patients (Example 7)
  Knee Pain (NPRS): 0.5 (+/−0.6)
Ice Pack cooling, 30 min, all five patients (Example 7)
  Knee Pain (NPRS): 0.3 (+/−0.5)
Ice Pack cooling, 30 min, four patients (Example 7)
  Knee Pain (NPRS): 0.3 (+/−0.6)
Ice Pack cooling, 40 min, all five patients (Example 7)
  Knee Pain (NPRS): 0.0
Ice Pack cooling, 40 min, four patients (Example 7)
  Knee Pain (NPRS): 0.0
Ice Pack cooling, 50 min, all five patients (Example 7)
  Knee Pain (NPRS): 0.3 (+/−0.5)
Ice Pack cooling, 50 min, four patients (Example 7)
  Knee Pain (NPRS): 0.3 (+/−0.5)
Ice Pack cooling, 70 min, all five patients (Example 7)
  Knee Pain (NPRS): 7.3 (+/−1.9)
Ice Pack cooling, 70 min, four patients (Example 7)
  Knee Pain (NPRS): 7.3 (+/−1.9)
Ice Pack cooling, 80 min, all five patients (Example 7)
  Knee Pain (NPRS): 5.4 (+/−3.7)
Ice Pack cooling, 80 min, four patients (Example 7)
  Knee Pain (NPRS): 6.8 (+/−2.5)
Ice Pack cooling, 90 min, all five patients (Example 7)
  Knee Pain (NPRS): 4.0 (+/−1.6)
Ice Pack cooling, 90 min, four patients (Example 7)
  Knee Pain (NPRS): 4.3 (+/−1.7)
Ice Pack cooling, 100 min, all five patients (Example 7)
  Knee Pain (NPRS): 3.2 (+/−1.6)
Ice Pack cooling, 100 min, four patients (Example 7)
  Knee Pain (NPRS): 3.5 (+/−1.7)
Ice Pack cooling, 110 min, all five patients (Example 7)
  Knee Pain (NPRS): 2.4 (+/−2.1)
Ice Pack cooling, 110 min, four patients (Example 7)
  Knee Pain (NPRS): 2.8 (+/−2.2)
Ice Pack cooling, 120 min, all five patients (Example 7)
  Knee Pain (NPRS): 1.8 (+/−1.3)
Ice Pack cooling, 120 min, four patients (Example 7)
  Knee Pain (NPRS): 2.0 (+/−1.4)
Ice Pack cooling, 130 min, all five patients (Example 7)
  Knee Pain (NPRS): 2.0 (+/−1.0)
Ice Pack cooling, 130 min, four patients (Example 7)
  Knee Pain (NPRS): 2.3 (+/−1.0)
Ice Pack cooling, 140 min, all five patients (Example 7)
  Knee Pain (NPRS): 1.8 (+/−1.1)
Ice Pack cooling, 140 min, four patients (Example 7)
  Knee Pain (NPRS): 1.8 (+/−1.3)
Ice Pack cooling, 150 min, all five patients (Example 7)
  Knee Pain (NPRS): 1.4 (+/−0.9)
Ice Pack cooling, 150 min, four patients (Example 7)
  Knee Pain (NPRS): 1.3 (+/−1.0)
Ice Pack cooling, 160 min, all five patients (Example 7)
  Knee Pain (NPRS): 1.0 (+/−1.4)
Ice Pack cooling, 160 min, four patients (Example 7)
  Knee Pain (NPRS): 2.0
Ice Pack cooling, 170 min, all five patients (Example 7)
  Knee Pain (NPRS): 0.5 (+/−0.7)
Ice Pack cooling, 170 min, four patients (Example 7)
  Knee Pain (NPRS): 1.0
Ice Pack cooling, 180 min, all five patients (Example 7)
  Knee Pain (NPRS): 7.0
Ice Pack cooling, 180 min, four patients (Example 7)
  Knee Pain (NPRS): 7.0
Ice Pack cooling, 190 min, all five patients (Example 7)
  Knee Pain (NPRS): 2.0
Ice Pack cooling, 190 min, four patients (Example 7)
  Knee Pain (NPRS): 2.0
Ice Pack cooling, Baseline, all five patients (Example 7)
  Knee Pain (NPRS): 1.0 (+/−2.2)
Ice Pack cooling, Baseline, four patients (Example 7)
  Knee Pain (NPRS): 1.3 (+/−2.5)
Standard Cooling Device (Breg pad), 20 min, all five patients (Example 7)
  Knee Pain (NPRS): 1.0 (+/−1.7)
Standard Cooling Device (Breg pad), 20 min, four patients (Example 7)
  Knee Pain (NPRS): 1.3 (+/−1.9)
Standard Cooling Device (Breg pad), 30 min, all five patients (Example 7)
  Knee Pain (NPRS): 1.2 (+/−1.1)
Standard Cooling Device (Breg pad), 30 min, four patients (Example 7)
  Knee Pain (NPRS): 1.3 (+/−1.3)
Standard Cooling Device (Breg pad), 50 min, all five patients (Example 7)
  Knee Pain (NPRS): 0.8 (+/−0.8)
Standard Cooling Device (Breg pad), 50 min, four patients (Example 7)
  Knee Pain (NPRS): 1.0 (+/−0.8)
Standard Cooling Device (Breg pad), 70 min, all five patients (Example 7)
  Knee Pain (NPRS): 5.0 (+/−2.9)
Standard Cooling Device (Breg pad), 70 min, four patients (Example 7)
  Knee Pain (NPRS): 4.0 (+/−2.2)
Standard Cooling Device (Breg pad), 80 min, all five patients (Example 7)
  Knee Pain (NPRS): 4.0 (+/−1.4)
Standard Cooling Device (Breg pad), 80 min, four patients (Example 7)
  Knee Pain (NPRS): 3.8 (+/−1.5)
Standard Cooling Device (Breg pad), 90 min, all five patients (Example 7)
  Knee Pain (NPRS): 2.8 (+/−1.6)
Standard Cooling Device (Breg pad), 90 min, four patients (Example 7)
  Knee Pain (NPRS): 2.5 (+/−1.7)
Standard Cooling Device (Breg pad), 100 min, all five patients (Example 7)
  Knee Pain (NPRS): 2.0 (+/−1.4)
Standard Cooling Device (Breg pad), 100 min, four patients (Example 7)
  Knee Pain (NPRS): 1.8 (+/−1.5)
Standard Cooling Device (Breg pad), 110 min, all five patients (Example 7)
  Knee Pain (NPRS): 1.2 (+/−0.8)
Standard Cooling Device (Breg pad), 110 min, four patients (Example 7)
  Knee Pain (NPRS): 1.3 (+/−1.0)
Standard Cooling Device (Breg pad), 120 min, all five patients (Example 7)
  Knee Pain (NPRS): 1.0 (+/−0.7)
Standard Cooling Device (Breg pad), 120 min, four patients (Example 7)
  Knee Pain (NPRS): 1.0 (+/−0.8)
Standard Cooling Device (Breg pad), 130 min, all five patients (Example 7)
  Knee Pain (NPRS): 0.6 (+/−0.5)
Standard Cooling Device (Breg pad), 130 min, four patients (Example 7)
  Knee Pain (NPRS): 0.8 (+/−0.5)
Standard Cooling Device (Breg pad), 140 min, all five patients (Example 7)
  Knee Pain (NPRS): 1.2 (+/−0.8)
Standard Cooling Device (Breg pad), 140 min, four patients (Example 7)
  Knee Pain (NPRS): 1.0 (+/−0.8)
Standard Cooling Device (Breg pad), 150 min, all five patients (Example 7)
  Knee Pain (NPRS): 1.2 (+/−1.1)
Standard Cooling Device (Breg pad), 150 min, four patients (Example 7)
  Knee Pain (NPRS): 1.3 (+/−1.3)
Standard Cooling Device (Breg pad), Baseline, all five patients (Example 7)
  Knee Pain (NPRS): 1.8 (+/−2.4)
Standard Cooling Device (Breg pad), Baseline, four patients (Example 7)
  Knee Pain (NPRS): 2.0 (+/−2.7)
